Reference: PubChem BioAssay (NCI)
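These data come from cells grown in 96-well plates and exposed to compound for 48 hours at five concentrations. The concentration for 50% growth inhibition is given as GI50. The concentration for full growth arrest is given as TGI.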

Experiments:
Experiment in all cases: DTP human tumour cell line panel, 48 h
786-0 renal = tested on: 786-0 renal
A498 renal = tested on: A498 renal
A549 NSCLC = tested on: A549 NSCLC
ACHN renal = tested on: ACHN renal
BT-549 breast = tested on: BT-549 breast
CAKI-1 renal = tested on: CAKI-1 renal
CCRF-CEM leukemia = tested on: CCRF-CEM leukemia
COLO 205 colon = tested on: COLO 205 colon
DU-145 prostate = tested on: DU-145 prostate
EKVX NSCLC = tested on: EKVX NSCLC
HCC-2998 colon = tested on: HCC-2998 colon
HCT-116 colon = tested on: HCT-116 colon
HCT-15 colon = tested on: HCT-15 colon
HL-60(TB) leukemia = tested on: HL-60(TB) leukemia
HOP-62 NSCLC = tested on: HOP-62 NSCLC
HOP-92 NSCLC = tested on: HOP-92 NSCLC
HS 578T breast = tested on: HS 578T breast
HT29 colon = tested on: HT29 colon
IGROV1 ovarian = tested on: IGROV1 ovarian
K-562 leukemia = tested on: K-562 leukemia
KM12 colon = tested on: KM12 colon
LOX IMVI melanoma = tested on: LOX IMVI melanoma
M14 melanoma = tested on: M14 melanoma
MALME-3M melanoma = tested on: MALME-3M melanoma
MCF7 breast = tested on: MCF7 breast
MDA-MB-231 breast = tested on: MDA-MB-231 breast
MDA-MB-435 = tested on: MDA-MB-435
MDA-MB-468 breast = tested on: MDA-MB-468 breast
MOLT-4 leukemia = tested on: MOLT-4 leukemia
NCI-H226 lung = tested on: NCI-H226 lung
NCI-H23 lung = tested on: NCI-H23 lung
NCI-H460 lung = tested on: NCI-H460 lung
NCI-H522 lung = tested on: NCI-H522 lung
NCI/ADR-RES ovarian = tested on: NCI/ADR-RES ovarian
OVCAR-3 ovarian = tested on: OVCAR-3 ovarian
OVCAR-4 ovarian = tested on: OVCAR-4 ovarian
OVCAR-5 ovarian = tested on: OVCAR-5 ovarian
OVCAR-8 ovarian = tested on: OVCAR-8 ovarian
PC-3 prostate = tested on: PC-3 prostate
RPMI-8226 leukemia = tested on: RPMI-8226 leukemia
RXF 393 renal = tested on: RXF 393 renal
SF-268 CNS = tested on: SF-268 CNS
SF-295 CNS = tested on: SF-295 CNS
SF-539 CNS = tested on: SF-539 CNS
SK-MEL-2 melanoma = tested on: SK-MEL-2 melanoma
SK-MEL-28 melanoma = tested on: SK-MEL-28 melanoma
SK-MEL-5 melanoma = tested on: SK-MEL-5 melanoma
SK-OV-3 ovarian = tested on: SK-OV-3 ovarian
SN12C renal = tested on: SN12C renal
SNB-19 CNS = tested on: SNB-19 CNS
SR leukemia = tested on: SR leukemia
SW-620 colon = tested on: SW-620 colon
T-47D breast = tested on: T-47D breast
TK-10 renal = tested on: TK-10 renal
U251 CNS = tested on: U251 CNS
UACC-257 melanoma = tested on: UACC-257 melanoma
UACC-62 melanoma = tested on: UACC-62 melanoma
UO-31 renal = tested on: UO-31 renal

## O=S(=O)(Nc1cccc(-n2cnc3cc(-c4ccc(O)cc4)ccc32)c1)C1CC1
786-0 renal
  GI50: 4.7 µM
  TGI: 16.9 µM
A498 renal
  GI50: 3.31 µM
  TGI: 10.4 µM
A549 NSCLC
  GI50: 4.04 µM
  TGI: 17.1 µM
ACHN renal
  GI50: 4.86 µM
  TGI: 16.8 µM
BT-549 breast
  GI50: 2.59 µM
  TGI: 12.5 µM
CAKI-1 renal
  GI50: 3.25 µM
  TGI: 14.6 µM
CCRF-CEM leukemia
  GI50: 2.62 µM
  TGI: 14.5 µM
COLO 205 colon
  GI50: 3.17 µM
  TGI: 11.1 µM
DU-145 prostate
  GI50: 4.19 µM
  TGI: 15 µM
EKVX NSCLC
  GI50: 6.56 µM
  TGI: 21.6 µM
HCC-2998 colon
  GI50: 4.4 µM
  TGI: 19.6 µM
HCT-116 colon
  GI50: 2.82 µM
  TGI: 15.3 µM
HCT-15 colon
  GI50: 1.62 µM
  TGI: 14.1 µM
HL-60(TB) leukemia
  GI50: 1.38 µM
  TGI: 5.63 µM
HOP-62 NSCLC
  GI50: 4.63 µM
  TGI: 19.4 µM
HOP-92 NSCLC
  GI50: 1.43 µM
  TGI: 8.43 µM
HS 578T breast
  GI50: 1.93 µM
  TGI: 7.42 µM
HT29 colon
  GI50: 2.6 µM
  TGI: 8.59 µM
IGROV1 ovarian
  GI50: 4.58 µM
  TGI: 17.7 µM
K-562 leukemia
  GI50: 0.546 µM
  TGI: > 100 µM
KM12 colon
  GI50: 0.654 µM
  TGI: 13.2 µM
LOX IMVI melanoma
  GI50: 3.14 µM
  TGI: 14.7 µM
M14 melanoma
  GI50: 2.36 µM
  TGI: 17.6 µM
MALME-3M melanoma
  GI50: 3.54 µM
  TGI: 18.4 µM
MCF7 breast
  GI50: 1.96 µM
  TGI: 16.8 µM
MDA-MB-231 breast
  GI50: 3.4 µM
  TGI: 20.8 µM
MDA-MB-435
  GI50: 0.311 µM
  TGI: 1.33 µM
MDA-MB-468 breast
  GI50: 1.44 µM
  TGI: 6.58 µM
MOLT-4 leukemia
  GI50: 2.01 µM
  TGI: 14.1 µM
NCI-H226 lung
  GI50: 6.23 µM
  TGI: 27.8 µM
NCI-H23 lung
  GI50: 5.04 µM
  TGI: 20.6 µM
NCI-H460 lung
  GI50: 3.03 µM
  TGI: 13 µM
NCI-H522 lung
  GI50: 0.82 µM
  TGI: 3.66 µM
NCI/ADR-RES ovarian
  GI50: 3.52 µM
  TGI: 36.5 µM
OVCAR-3 ovarian
  GI50: 2.14 µM
  TGI: 10.3 µM
OVCAR-4 ovarian
  GI50: 4.03 µM
  TGI: 17.3 µM
OVCAR-5 ovarian
  GI50: 6.77 µM
  TGI: 20.6 µM
OVCAR-8 ovarian
  GI50: 3.23 µM
  TGI: 14.5 µM
PC-3 prostate
  GI50: 3.2 µM
  TGI: 17 µM
RPMI-8226 leukemia
  GI50: 2.83 µM
  TGI: 9.46 µM
RXF 393 renal
  GI50: 2.19 µM
  TGI: 7.7 µM
SF-268 CNS
  GI50: 3.79 µM
  TGI: 17.2 µM
SF-295 CNS
  GI50: 2.36 µM
  TGI: 11.4 µM
SF-539 CNS
  GI50: 1.53 µM
  TGI: 6.1 µM
SK-MEL-2 melanoma
  GI50: 2.87 µM
  TGI: 14.5 µM
SK-MEL-28 melanoma
  GI50: 6.68 µM
  TGI: 20 µM
SK-MEL-5 melanoma
  GI50: 3.13 µM
  TGI: 14.1 µM
SK-OV-3 ovarian
  GI50: 3.84 µM
  TGI: 13.4 µM
SN12C renal
  GI50: 3.7 µM
  TGI: 15.1 µM
SNB-19 CNS
  GI50: 5.95 µM
  TGI: 19.8 µM
SR leukemia
  GI50: 0.391 µM
  TGI: 65.5 µM
SW-620 colon
  GI50: 1.5 µM
  TGI: 17.4 µM
T-47D breast
  GI50: 2.73 µM
  TGI: 14.5 µM
TK-10 renal
  GI50: 8.98 µM
  TGI: 20.9 µM
U251 CNS
  GI50: 2.65 µM
  TGI: 13.8 µM
UACC-257 melanoma
  GI50: 10.2 µM
  TGI: 22 µM
UACC-62 melanoma
  GI50: 1.62 µM
  TGI: 14.3 µM
UO-31 renal
  GI50: 2.19 µM
  TGI: 13.9 µM
